Test results reported in patent publication US7935688B2, “Vitamin D-like compound” (Chugai Seiyaku Kabushiki Kaisha, priority 2005, dated 2011).

Tested on: osteocalcin production in MG-63 cells
Assay: Osteocalcin production in MG-63 cells (Gla-type Osteocalcin EIA)
Type: cell-based, human
Settings: (EC50 value of 1,25(OH)2D3/EC50 value of each compound)×100; eight hours exposure, then four days culture
Description: mg-63 was obtained from Institute for Fermentation, Osaka as a human osteoblast-like cell line. MG-63 cells were maintained and cultured in a MEM medium (Minimum essential medium; pH 7.0; Invitrogen Corporation, Carlsbad, Calif., USA) containing 5% fetal bovine serum (FBS; HyClone, Logan, Utah, USA).
MG-63 cells were adjusted to a density of 4.0×10^4 cells/mL, plated in a 96-well plate at 200 μL per well, and cultured under conditions of 37° C. and 5% carbon dioxide for 24 hours.
After removing the medium, MEM containing 5% charcoal/dextran treated FBS (DCC-FBS; Hyclone, Logan, Utah, USA) was added at 180 μL/well. The test substance (1.0×10^−3 mol/L) was diluted with dimethyl sulfoxide (DMSO) to 1.0×10^−4 mol/L, 1.0×10^−5 mol/L, 1.0×10^−6 mol/L, 1.0×10^−7 mol/L and 1.0×10^−8 mol/L. 1,25(OH)2D3 was used as a positive control. Like the test substance, 1,25(OH)2D3 was diluted with DMSO. 0.02 mL of the positive control and the test substance diluted 100-fold with MEM containing 5% DCC-FCS was added to each well of the 96-well plate, so that the final drug concentration was 1.0×10^−6 mol/L to 1.0×10^−11 mol/L. Thereafter, the cells were cultured under conditions of 37° C. and 5% carbon dioxide for eight hours.
After culturing for eight hours, the medium was removed, and MEM containing 5% DCC-FBS was added at 0.2 mL per well. The cells were cultured under conditions of 37° C. and 5% carbon dioxide for four days, and the medium was recovered. The medium was stored at −80° C. until osteocalcin measurement.
The Gla-type Osteocalcin EIA kit (Takara Bio Inc., Tokyo, Japan) was used for measurement of osteocalcin. Measurement was carried out using a microplate reader (Model 3550, Bio-Rad Laboratories, Inc., Hercules, Calif., USA) at a wavelength of 450 nm, and the results were analyzed by Microplate Manager III (Bio-Rad Laboratories, Inc., ver. 1.57).
The median effective concentration (EC50) was calculated from the osteocalcin concentration. Potency of induction of each compound was calculated as a ratio of EC50 of 1,25(OH)2D3 to EC50 of the compound. The relation between diseases and induction of osteocalcin production is described in Lancet (1984 May 19), 1 (8386), 1091-3; Steroids 66, 159-170 (2001); and Journal of Steroid Biochemistry & Molecular Biology 89-90, 269-271 (2004), for example.
The osteocalcin production level in MG-63 cells (%) was calculated by the formula: (EC50 value of 1,25(OH)2D3/EC50 value of each compound)×100.

| Structure (SMILES) | Osteocalcin production level in MG-63 cells (%) |
| --- | --- |
| CCC(CC)(c1ccc(OCC(O)CO)c(C)c1)c1ccc(OCC(O)C(C)(C)C)c(C)c1 (centres unmarked) [LG190178, reference compound] | 185% |
| CCC(CC)(c1ccc(CCC(O)C(C)(C)C)c(C)c1)c1ccc(-c2ccc(CC(=O)O)c(Cl)c2)c(C)c1 (centres unmarked) [Example 61, (4′-{1-ethyl-1-[4-(3-hydroxy-4,4-dimethyl-pentyl)-3-methyl-phenyl]-propyl}-3-chloro-2′-methyl-biphenyl-4-yl)-acetic Acid] | 956% |
| CCC(CC)(c1ccc(OCC(O)C(C)(C)C)c(C)c1)c1ccc(-c2ccc(CC(=O)O)cc2)c(C)c1 (centres unmarked) [Example 51, (4′-{1-ethyl-1-[4-(2-hydroxy-3,3-dimethyl-butoxy)-3-methyl-phenyl]-propyl}-2′-methyl-biphenyl-4-yl)-acetic Acid] | 650% |
| CCC(CC)(c1ccc(-c2cncc(CC(=O)O)c2)cc1)c1ccc(C#CC2(O)CCCCC2)c(C)c1 [Example 147, [5-(4-{1-ethyl-1-[4-(1-hydroxy-cyclohexylethynyl)-3-methyl-phenyl]-propyl}-phenyl)-pyridin-3-yl]-acetic Acid] | 1228% |
| CCC(CC)(c1ccc(/C=C/C(O)(C(F)(F)F)C(F)(F)F)c(C)c1)c1ccc(-c2ccc(CC(=O)O)cn2)c(C)c1 [Example 74, [6-(4-{1-ethyl-1-[3-methyl-4-((E)-4,4,4-trifluoro-3-hydroxy-3-trifluoromethyl-1-butenyl)-phenyl]-propyl}-2-methyl-phenyl)-pyridin-3-yl]-acetic Acid] | 1848% |
| CCC(CC)(c1ccc(/C=C/C2(O)CCCC2)c(C)c1)c1ccc(-c2ccc(CC(=O)O)cn2)c(C)c1 [Example 85, {6-[4-(1-ethyl-1-{4-[(E)-2-(1-hydroxy-cyclopentyl)-vinyl]-3-methyl-phenyl}-propyl)-2-methyl-phenyl]-pyridin-3-yl}-acetic Acid] | 765% |
| CCC(CC)(c1ccc(/C=C/C(O)(C(F)(F)F)C(F)(F)F)c(C)c1)c1ccc(-c2ccc(CC(=O)O)c(F)c2)c(C)c1 [Example 72, (4′-{1-ethyl-1-[3-methyl-4-((E)-4,4,4-trifluoro-3-hydroxy-3-trifluoromethyl-1-butenyl)-phenyl]-propyl}-3-fluoro-2′-methyl-biphenyl-4-yl)-acetic Acid] | 1624% |
| CCC(CC)(c1ccc(/C=C/C2(O)CCCCC2)c(C)c1)c1ccc(-c2ccc(CC(=O)O)cc2)c(C)c1 [Example 56, (E)-[4′-(1-ethyl-1-{4-[2-(1-hydroxy-cyclohexyl)-vinyl]-3-methyl-phenyl}-propyl)-2′-methyl-biphenyl-4-yl]-acetic Acid] | 1379% |
| CCC(CC)(c1ccc(/C=C/C2(O)CCCC2)c(C)c1)c1ccc(-c2ccc(CC(=O)O)cc2)c(C)c1 [Example 53, (E)-[4′-(1-Ethyl-1-{4-[2-(1-hydroxy-cyclopentyl)-vinyl]-3-methyl-phenyl}-propyl)-2′-methyl-biphenyl-4-yl]-acetic Acid] | 772% |
| CCC(CC)(c1ccc(CCC(O)C(C)(C)C)c(C)c1)c1ccc(-c2ccc(CC(=O)O)cc2)c(C)c1 (single isomer, unassigned) [Example 13, (4′-{1-ethyl-1-[4-(3-hydroxy-4,4-dimethyl-pentyl)-3-methyl-phenyl]-propyl}-2′-methyl-biphenyl-4-yl)-acetic Acid] | 401% |
| C=C1/C(=C\C=C2/CCC[C@]3(C)[C@@H]([C@H](C)CCCC(C)(C)O)CC[C@@H]23)C[C@@H](O)C[C@@H]1O [1,25(OH)2D3, 1α,25-dihydroxyvitamin D3, reference compound] | 100% |
| CCC(CC)(c1ccc(/C=C/C2(O)CCCCC2)c(C)c1)c1ccc(-c2ccc(CC(=O)O)c(Cl)c2)c(C)c1 [Example 90, [3-chloro-4′-(1-ethyl-1-{4-[(E)-2-(1-hydroxy-cyclohexyl)-vinyl]-3-methyl-phenyl}-propyl)-2′-methyl-biphenyl-4-yl]-acetic Acid] | 1604% |
| CCC(O)(/C=C/c1ccc(C(CC)(CC)c2ccc(-c3ccc(CC(=O)O)cc3)c(C)c2)cc1C)CC [Example 22, (E)-(4′-{1-ethyl-1-[4-(3-ethyl-3-hydroxy-1-pentenyl)-3-methyl-phenyl]-propyl}-2′-methyl-biphenyl-4-yl)-acetic Acid] | 1044% |
| CCC(CC)(c1ccc(CCC(O)C(C)(C)C)c(C)c1)c1ccc(-c2ccc(CC(=O)O)cn2)c(C)c1 (single isomer, unassigned) [Example 23, [6-(4-{1-ethyl-1-[4-(3-hydroxy-4,4-dimethyl-pentyl)-3-methyl-phenyl]-propyl}-2-methyl-phenyl)-pyridin-3-yl]-acetic Acid] | 3264% |
| CCC(CC)(c1ccc(-c2cncc(CC(=O)O)c2)cc1)c1ccc(CCC2(O)CCCC2)c(C)c1 [Example 150, {5-[4-(1-ethyl-1-{4-[2-(1-hydroxy-cyclopentyl)-ethyl]-3-methyl-phenyl}-propyl)-phenyl]-pyridin-3-yl}-acetic Acid] | 645% |
| CCC(CC)(c1ccc(/C=C/C2(O)CCCCC2)c(C)c1)c1ccc(-c2ccc(CC(=O)O)c(F)c2)c(C)c1 [Example 88, [4′-(1-ethyl-1-{4-[(E)-2-(1-hydroxy-cyclohexyl)-vinyl]-3-methyl-phenyl}-propyl)-3-fluoro-2′-methyl-biphenyl-4-yl]-acetic Acid] | 4562% |
| CCC(CC)(c1ccc(/C=C/C2(O)CCCC2)c(C)c1)c1ccc(-c2ccc(CC(=O)[O-])c(F)c2)c(C)c1.[Na+] [Example 84, Sodium [4′-(1-ethyl-1-{4-[(E)-2-(1-hydroxy-cyclopentyl)-vinyl]-3-methyl-phenyl}-propyl)-3-fluoro-2′-methyl-biphenyl-4-yl]-acetate] | 739% |
| CCC(CC)(c1ccc(CCC(O)C(C)(C)C)c(C)c1)c1ccc(-c2cncc(CC(=O)O)c2)c(C)c1 (single isomer, unassigned) [Example 24, [5-(4-{1-ethyl-1-[4-(3-hydroxy-4,4-dimethyl-pentyl)-3-methyl-phenyl]-propyl}-2-methyl-phenyl)-pyridin-3-yl]-acetic Acid] | 660% |
| CCC(CC)(c1ccc(/C=C/C(O)(C(F)(F)F)C(F)(F)F)c(C)c1)c1ccc(-c2ccc(CC(=O)O)c(Cl)c2)c(C)c1 [Example 73, (3-chloro-4′-{1-ethyl-1-[3-methyl-4-((E)-4,4,4-trifluoro-3-hydroxy-3-trifluoromethyl-1-butenyl)-phenyl]-propyl}-2′-methyl-biphenyl-4-yl)-acetic Acid] | 1595% |
| CCC(CC)(c1ccc(C#CC2(O)CCCC2)c(C)c1)c1ccc(-c2ccc(CC(=O)O)c(F)c2)c(C)c1 [Example 93, (4′-{1-ethyl-1-[4-(1-hydroxy-cyclopentylethynyl)-3-methyl-phenyl]-propyl}-3-fluoro-2′-methyl-biphenyl-4-yl)-acetic Acid] | 487% |
| CCC(CC)(c1ccc(CCC(O)C(C)(C)C)c(C)c1)c1ccc(-c2ccc(CC(=O)O)c(F)c2)c(C)c1 (centres unmarked) [Example 60, (4′-{1-ethyl-1-[4-(3-hydroxy-4,4-dimethyl-pentyl)-3-methyl-phenyl]-propyl}-3-fluoro-2′-methyl-biphenyl-4-yl)-acetic Acid] | 3798% |
| CCC(CC)(c1ccc(CCC(O)C(C)(C)C)c(C)c1)c1ccc(-c2cccc(CC(=O)O)c2)c(C)c1 (single isomer, unassigned) [Example 14, (4′-{1-ethyl-1-[4-(3-hydroxy-4,4-dimethyl-pentyl)-3-methyl-phenyl]-propyl}-2′-methyl-biphenyl-3-yl)-acetic Acid] | 161% |
| CCC(CC)(c1ccc(C#CC2(O)CCCCC2)c(C)c1)c1ccc(-c2ccc(CC(=O)O)c(F)c2)c(C)c1 [Example 97, (4′-{1-ethyl-1-[4-(1-hydroxy-cyclohexylethynyl)-3-methyl-phenyl]-propyl}-3-fluoro-2′-methyl-biphenyl-4-yl)-acetic Acid] | 533% |
